Series [1] concerns NCI-60 human tumor cell lines. The experiment in a line: NCI-60 DTP Human Tumor Cell Line Drug Screening. Particulars: leukemia, NSCLC, colon, CNS, melanoma, ovarian, renal, prostate, breast lines. Type of series: cell-based. The text has this: Moreover, preliminary data from the NCI-60 DTP Human Tumor Cell Line Drug Screening (http://dtp.nci.nih.gov/branches/btb/ivclsp.html) further confirmed the observations on these COH-SR compounds. […] A value of 100 meant no growth inhibition. A value of 20 meant 80% growth inhibition. A value of 0 meant no net growth over the course of the experiment. A value of −40 meant 40% lethality. A value of −100 meant all cells were dead.

The test system of series [2] is HL-60 cells. As to the kind of experiment: Differentiation of HL-60 cells (Giemsa-Wright, NBT, CD11b/CD14). Particulars: 48 hours; for surface expression of CD11b and CD14: 0.5-3 μM, flow cytometry; for morphologic changes (Giemsa-Wright stain), myeloid differentiation: 2-10 μM. Type of series: cell-based, human. How it is done:
HL-60 cells were incubated with a test compound at various concentrations (2˜10 μM), DMSO, or without any test compound for 48 hours, and then examined for morphologic changes by Giemsa-Wright stain. The results were observed microscopically and shown in FIG. 13 at a magnification of ×400. […] Such results were similar to cells treated with DMSO or all-trans retinoic acid (ATRA), wherein DMSO or ATRA terminally differentiated HL-60 cells into myeloid cells (FIG. 13).
HL-60 cells (2.5×10^5) were treated with or without a test compound for 48 hours and then stained with NBT, wherein positively-stained cells appeared as purple black (FIG. 14A). NBT positive cells were counted and the overall percentage was calculated based on 200 total cells counted for each treatment. Three˜four independent experiments were carried out, and data are shown as mean±SE (FIG. 14B). This measurement of “oxidative burst” by the NBT assay is a well-known and extensively tested functional marker of HL-60 cell differentiation.
HL-60 cells (2.5×10^5) were incubated with a test compound (COH-SR4 or COH-SR9) at a concentration of 0.5 μM, 1 μM, 2 μM, or 3 μM, or without any COH-SR compound for 48 hours and then assessed for the surface expression of CD11b (FIG. 14C) and CD14 (FIG. 14D) by flow cytometry, respectively. Three-four independent experiments were carried out, and data are shown as mean±SE (FIGS. 14C and 14D).

Series [3] has as its system cyclin D1, cyclin E2, CDK2, CDK4, p21WAF1/Cip1, p27Kip1. The experiment in a line: HL-60 cell cycle regulatory proteins, Western blot. The following applies: 24 hours, 0.5-3 μM. In kind it is cell-based, human. As to the method:
HL-60 cells were treated without or with COH-SR4 or COH-SR9 at a concentration of 0.5 μM, 1 μM, 2 μM, or 3 μM for 24 hours. Then the total cell lysates from the treated cells or untreated cells were resolved under electrophoresis and immunoblotted with antibodies against cyclin D1, cyclin E2, CDK2, CDK4, p21WAF1/Cip1, p27Kip1, and β-actin. β-actin served as an internal control. Densitometric quantitation was performed on each blot and the arbitrary numbers above each band represent the fold increase/decrease compared with untreated control. […] These kinase inhibitors are known to interfere with cell cycle progression to cause phase-specific cycle arrest by perturbing the phosphorylation process through direct interaction with their target proteins (cyclins or CDK).
A general note: Immunoblotting shows a protein as a band on a membrane.

In series [4] the test system is HL-60 cells. As to the kind of experiment: HL-60 cell viability, MTT assay. The following applies: for cytotoxicity and cell proliferation: 48 hours, 1-15 μM.
Method: Three independent experiments were carried out with 3 duplications each, and data are shown as mean±SE.
Series [5] relates to HL-60 cells. The experiment in a line: HL-60 apoptosis markers (DNA ladder, DiOC6(3), caspases, cytochrome c, PARP). Particulars: for DiOC6(3) fluorescence (mitochondrial depolarization): 4 hours; for cytochrome c release and PARP: 24 hours; for cytochrome c release and PARP / caspase 3/7 and caspase 9 activity: 0.5-3 μM; for caspase 3/7 and caspase 9 activity: 48 hours; for DNA fragmentation (DNA ladder): agarose gel. Type of series: cell-based, human. As to the method: DNA was stained with ethidium bromide after electrophoresis on 1.5% agarose gel and then visualized under UV light.
To test whether mitochondrial membrane disruption was involved in the apoptotic effects of COH-SR4 and COH-SR9, fluorescent cationic lipophilic dye DiOC6(3) was used and monitored using flow cytometry. HL-60 cells were exposed to various concentrations of COH-SR4 or COH-SR9 for 4 hours. After incubation, cells were rinsed and stained with the cationic fluorescent dye DiOC6(3) and then the overall fluorescence was analyzed by flow cytometry. […] Reduction of the fluorescence intensity of DiOC6(3) is indicative of the cells undergoing mitochondrial depolarization and loss of Δψmt. This effect, which has been commonly observed with other anticancer drugs irrespective of the cell type, generally defines an early but already irreversible stage of apoptosis.
HL-60 (2.5×10^4) cells were seeded into 96-well plates and incubated with a test compound (COH-SR4 or COH-SR9) at various concentrations (0.5˜3 μM) for 48 hours, then caspase-3/7 or caspase-9 activity was measured with the Caspase Glo kit (Promega), respectively. Data are expressed as mean±SE from 3 independent experiments (FIG. 18A), “*” in the figure means p<0.05 when compared to the untreated control.
Treatment of COH-SR compounds also triggered release of cytochrome c (14 kDa) into the cytoplasm and cleavage of full length PARP (116 kDa) into the 89 kDa fragment, all hallmarks of cells undergoing apoptosis (FIG. 18B). HL-60 cells were treated with COH-SR4 or COH-SR9 at various concentrations (0.5 μM˜3 μM) or nothing for 24 hours. Cytochrome c (14 kDa) and cleavage of full length PARP (116 kDa) into the 89 kDa fragment were analyzed in untreated HL-60 cells and HL-60 cells treated with COH-SR4 or COH-SR9 by Western blot. Numbers below each blot represent fold increase in protein expression relative to the control as quantified by densitometry and calculated with reference to β-actin as an internal standard.

The test system of another series is AMPK. As to the kind of experiment: AMPK activation in Hela cells, Western blot. Type of series: cell-based. Particulars: 1 hour, 1, 3 or 5 μM. As to the method:
Activation of AMPK was associated with the phosphorylation of the α-subunit on Thr-172 of as assessed using phospho-specific antibodies (FIGS. 10A-B). AMPK activation also leads to the increased phosphorylation of the target protein acetyl-CoA carboxylase (ACC) (FIG. 10B).
Cells of each cell lines (Hela, HL-60, and 3T3-L1) were treated for 1 hour with a test compound (COH-SR4, COH-SR9, COH-SR16, or COH-SR18) at a concentration of 1 μM, 3 μM, or 5 μM, or AICAR (5-aminoimidazole-4-carboxamideriboside, an AMPK agonist used as positive control) at a concentration of 500 μM, or none of the above (the untreated cells as negative control). Total cell lysates from the untreated cells and the cells treated with a test compound or AICAR were analyzed by Western blot assay using specific antibodies against phospho-AMPK, phospho-ACC, total AMPK and total ACC.

This note sets out measurements from patent US9808434B2, “Compound for treating cancer and diabetes” (CITY OF HOPE, priority 2011, dated 2017).

SMILES strings stand for the structures. “Also recorded” adds a separate entry of the source.

For `O=C(Nc1cc(Cl)cc(Cl)c1)Nc1cc(Cl)cc(Cl)c1` [COH-SR4, 1,3-bis(3,5-dichlorophenyl) urea], the “activity in NCI-60 screening” value in series [1] is recorded as “active against”. Further, in the series on HL-60 cells [2], the “superoxide production (NBT-positive cells)” value is recorded as “Induced Superoxide Production”; the “surface expression of CD11b and CD14” value was “dose-dependent increase in expression of both CD11 b and CD14”; the “morphologic changes (Giemsa-Wright stain), myeloid differentiation” value is “exhibited cytoplasmic vacuolation, reduced nucleus-to-cytoplasmic ratio, and absence of prominent nucleoli”. In series [3], the “protein levels of CDK inhibitors p21WAF1/Cip1 and p27Kip1” value was “upregulated”; the “protein levels of cyclin D1, cyclin E2, CDK2 and CDK4” value was “dose-dependent reduction in the protein levels of cyclin D1, cyclin E2, CDK2 and CDK4”. In addition, the “cytotoxicity and cell proliferation” value with HL-60 cells [4] was “exhibited cytotoxicity and prevented cell proliferation of HL-60 leukemia cells”. Also, in the series with HL-60 cells [4] (Homo sapiens, HL-60, 48 h), the IC50 – broadly, the concentration needed to halve the response being measured – was less than 5000 nM. Besides, in the series on HL-60 cells [4] (Homo sapiens, HL-60, 72 h), the half-maximal inhibitory concentration (IC50) is roughly 1700 nM. In addition, in the series on HL-60 cells [5], the “DiOC6(3) fluorescence (mitochondrial depolarization)” value is given as “decreased overall DiOC6(3) fluorescent intensity”; the “cytochrome c release and PARP” value is “release of cytochrome c into the cytoplasm and PARP enzyme activation”; the “caspase 3/7 and caspase 9 activity” value was “higher caspase 3/7 and caspase 9 activity”; the “DNA fragmentation (DNA ladder)” value is given as “dose-dependent DNA fragmentation”. In addition, the AMPK activation entry with AMPK was “highest potency; also recorded: Dose-dependent AMPK activation”.
Regarding `Cc1c(Cl)cc(NC(=O)Nc2cc(Cl)cc(Cl)c2)c(O)c1Cl` [COH-SR9, 1-(3,5-dichlorophenyl)-3-(3,5-dichloro-2-hydroxy-4-methyphenyl) urea], the “activity in NCI-60 screening” value in series [1] is “active against”. Moreover, in the series on HL-60 cells [2], the “superoxide production (NBT-positive cells)” value is listed as “Induced Superoxide Production”; the “surface expression of CD11b and CD14” value was “dose-dependent increase in expression of both CD11 b and CD14”; the “morphologic changes (Giemsa-Wright stain), myeloid differentiation” value is “exhibited cytoplasmic vacuolation, reduced nucleus-to-cytoplasmic ratio, and absence of prominent nucleoli”. Besides, in series [3], the “protein levels of CDK inhibitors p21WAF1/Cip1 and p27Kip1” value is recorded as “upregulated”; the “protein levels of cyclin D1, cyclin E2, CDK2 and CDK4” value was “dose-dependent reduction in the protein levels of cyclin D1, cyclin E2, CDK2 and CDK4”. Also, the “cytotoxicity and cell proliferation” value in the series on HL-60 cells [4] was “exhibited cytotoxicity and prevented cell proliferation of HL-60 leukemia cells”. The same compound showed an IC50 with HL-60 cells [4] (72 hours incubation) of roughly 2500 nM. Besides, in the series with HL-60 cells [5], the “DiOC6(3) fluorescence (mitochondrial depolarization)” value was “decreased overall DiOC6(3) fluorescent intensity”; the “cytochrome c release and PARP” value is “release of cytochrome c into the cytoplasm and PARP enzyme activation”; the “caspase 3/7 and caspase 9 activity” value is “higher caspase 3/7 and caspase 9 activity”; the “DNA fragmentation (DNA ladder)” value is “dose-dependent DNA fragmentation”. Besides, the AMPK activation entry with AMPK is recorded as “Dose-dependent AMPK activation”.
